In ChEMBL document CHEMBL1129003, “Cycloleonuripeptides A, B and C, three new proline-rich cyclic nonapeptides from Leonurus heterophyllus” (Bioorg Med Chem Lett, 1996):
Converted amounts (≈) assume the structure as drawn.

Test system: P388
Assay: Compound was evaluated for the growth inhibitory activity against p-388 lymphocytic leukemia cells.
Type: functional, cell-based, Mus musculus

IC50 (Mus musculus, P388, read-out: IC50) | IC50 (p388) | Structure (SMILES)
3.7 µg/mL (≈ 3.83 µM) | – | CC[C@@H](C)[C@H]1NC(=O)[C@@H](CC[S+](C)[O-])NC(=O)[C@H]2CCCN2C(=O)[C@H]2CCCN2C(=O)[C@@H](Cc2ccc(O)cc2)NC(=O)[C@H]2CCCN2C(=O)[C@H]2CCCN2C(=O)[C@H]2CCCN2C(=O)CNC1=O (single isomer, unassigned; isomer 2)
– | 6 µg/mL (≈ 6.21 µM) | CC[C@@H](C)[C@H]1NC(=O)[C@@H](CC[S+](C)[O-])NC(=O)[C@H]2CCCN2C(=O)[C@H]2CCCN2C(=O)[C@@H](Cc2ccc(O)cc2)NC(=O)[C@H]2CCCN2C(=O)[C@H]2CCCN2C(=O)[C@H]2CCCN2C(=O)CNC1=O (single isomer, unassigned; isomer 1)
